The values that follow come from patent US20240400577A1, “MODULATORS OF PROTEIN KINASES” (VIBLIOME THERAPEUTICS, LLC, priority 2021, published 2024).

Common to all, as to assay: Kinase panel enzymatic inhibition assay (Nanosyn)
Common to all, as to format: biochemical

The target in test [1] is T1, Abl1 (Homo sapiens, UniProt P00519).
T1 construct: purchased Nanosyn (contract screening)
The note with it: compound 5 μM; ATP at Km; 30-minute pre-incubation. Here is the method: (§1) The disclosed compounds were tested for activity against a panel of at least 300 kinases. Kinase panel screening was conducted by Nanosyn (Santa Clara, CA 95051) using an enzymatic inhibition assay accepted as valid by those skilled in the art (e.g., the Caliper LabChip® mobility shift assay, an ADP detection assay, or time-resolved fluorescence detection technology. Compounds were screened at a concentration of 5 μM using an ATP concentration at the Km for each of the respective kinases and a 30-minute pre-incubation time-point.
(§2) In Table 1 and 2, kinase inhibition is classified by: A=95% or greater, B=90%-94%, C=80%-89%, and D=79% and less with a compound concentration of 5 JIM. In Table 3 and 4, kinase inhibition is reported in terms of IC50 values corresponding to A=less than 500 nm, B=500 nm to less than 1 μM, C=1 μM to less than 10 μM, and D=10 μM or greater using a compound concentration of 5 μM.

For test [2], the target named is T2, Abl2 (Homo sapiens, UniProt P42684).
T2 construct: purchased Nanosyn (contract screening)
The note with it: compound 5 μM; ATP at Km; 30-minute pre-incubation. Here is the method:
as §1, §2

In test [3] the target is T3, BLK (Homo sapiens, UniProt P51451).
T3 construct: purchased Nanosyn (contract screening)
The note with it: compound 5 μM; ATP at Km; 30-minute pre-incubation. Here is the method: as §1, §2

Test [4] addresses T4, BRAF (Homo sapiens, UniProt P15056).
T4 construct: purchased Nanosyn (contract screening)
The note with it: compound 5 μM; ATP at Km; 30-minute pre-incubation. Here is the method:
as §1, §2

Test [5] has as its target T5, BRK (Homo sapiens, UniProt Q13882).
T5 construct: purchased Nanosyn (contract screening)
The note with it: compound 5 μM; ATP at Km; 30-minute pre-incubation. As for the experimental part: as §1, §2

Test [6] addresses T6, CLK4 (Homo sapiens, UniProt Q9HAZ1).
T6 construct: purchased Nanosyn (contract screening)
The note with it: compound 5 μM; ATP at Km; 30-minute pre-incubation. Here is the method:
as §1, §2

The target in test [7] is T7, COT1 (Homo sapiens, UniProt P41279).
T7 construct: purchased Nanosyn (contract screening)
The note with it: compound 5 μM; ATP at Km; 30-minute pre-incubation. Here is the method:
as §1, §2

Test [8] deals with T8, CSF1R (Homo sapiens, UniProt P07333).
T8 construct: purchased Nanosyn (contract screening)
The note with it: compound 5 μM; ATP at Km; 30-minute pre-incubation. Here is the method: as §1, §2

For test [9], the target named is T9, CSK (Homo sapiens, UniProt P41240).
T9 construct: purchased Nanosyn (contract screening)
T9 sequence (P41240 whole entry): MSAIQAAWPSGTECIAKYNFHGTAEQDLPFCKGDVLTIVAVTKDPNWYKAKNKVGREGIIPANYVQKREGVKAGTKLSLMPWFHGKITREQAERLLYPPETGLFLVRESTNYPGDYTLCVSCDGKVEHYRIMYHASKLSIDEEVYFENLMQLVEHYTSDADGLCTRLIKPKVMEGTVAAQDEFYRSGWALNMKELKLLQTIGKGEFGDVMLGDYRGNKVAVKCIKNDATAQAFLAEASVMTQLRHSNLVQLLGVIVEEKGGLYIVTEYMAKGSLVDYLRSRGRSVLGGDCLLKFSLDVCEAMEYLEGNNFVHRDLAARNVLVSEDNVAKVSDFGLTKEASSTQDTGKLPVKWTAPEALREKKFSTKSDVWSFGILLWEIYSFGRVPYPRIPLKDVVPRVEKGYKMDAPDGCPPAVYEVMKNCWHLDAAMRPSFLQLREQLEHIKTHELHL
The note with it: compound 5 μM; ATP at Km; 30-minute pre-incubation. Here is the method: as §1, §2

The target of test [10] is T10, FGR (Homo sapiens, UniProt P09769).
T10 construct: purchased Nanosyn (contract screening)
The note with it: compound 5 μM; ATP at Km; 30-minute pre-incubation. As for the experimental part:
as §1, §2

Test [11] addresses T11, FYN (Homo sapiens, UniProt P06241).
T11 construct: purchased Nanosyn (contract screening)
The note with it: compound 5 μM; ATP at Km; 30-minute pre-incubation. Here is the method:
as §1, §2

Test [12] deals with T12, HCK (Homo sapiens, UniProt P08631).
T12 construct: purchased Nanosyn (contract screening)
T12 sequence (P08631 whole entry): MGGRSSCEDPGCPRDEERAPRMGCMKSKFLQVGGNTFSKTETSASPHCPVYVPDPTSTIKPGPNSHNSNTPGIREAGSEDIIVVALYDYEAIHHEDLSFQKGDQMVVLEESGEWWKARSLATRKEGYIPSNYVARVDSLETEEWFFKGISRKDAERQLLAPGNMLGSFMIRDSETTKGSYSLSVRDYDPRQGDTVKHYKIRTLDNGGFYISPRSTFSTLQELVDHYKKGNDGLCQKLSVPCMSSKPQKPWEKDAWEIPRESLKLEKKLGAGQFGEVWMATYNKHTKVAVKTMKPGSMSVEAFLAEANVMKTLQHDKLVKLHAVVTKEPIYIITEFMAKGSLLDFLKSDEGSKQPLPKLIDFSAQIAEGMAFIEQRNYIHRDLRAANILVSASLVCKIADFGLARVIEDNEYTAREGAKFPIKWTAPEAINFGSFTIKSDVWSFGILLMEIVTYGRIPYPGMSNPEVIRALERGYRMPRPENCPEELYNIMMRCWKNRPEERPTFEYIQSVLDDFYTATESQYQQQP
The note with it: compound 5 μM; ATP at Km; 30-minute pre-incubation. As for the experimental part: as §1, §2

Test [13] addresses T13, KIT (Homo sapiens, UniProt P10721).
T13 construct: purchased Nanosyn (contract screening)
The note with it: compound 5 μM; ATP at Km; 30-minute pre-incubation. Here is the method: as §1, §2

Test [14] deals with T14, LCK (Homo sapiens, UniProt P06239).
T14 construct: purchased Nanosyn (contract screening)
T14 sequence (P06239 whole entry): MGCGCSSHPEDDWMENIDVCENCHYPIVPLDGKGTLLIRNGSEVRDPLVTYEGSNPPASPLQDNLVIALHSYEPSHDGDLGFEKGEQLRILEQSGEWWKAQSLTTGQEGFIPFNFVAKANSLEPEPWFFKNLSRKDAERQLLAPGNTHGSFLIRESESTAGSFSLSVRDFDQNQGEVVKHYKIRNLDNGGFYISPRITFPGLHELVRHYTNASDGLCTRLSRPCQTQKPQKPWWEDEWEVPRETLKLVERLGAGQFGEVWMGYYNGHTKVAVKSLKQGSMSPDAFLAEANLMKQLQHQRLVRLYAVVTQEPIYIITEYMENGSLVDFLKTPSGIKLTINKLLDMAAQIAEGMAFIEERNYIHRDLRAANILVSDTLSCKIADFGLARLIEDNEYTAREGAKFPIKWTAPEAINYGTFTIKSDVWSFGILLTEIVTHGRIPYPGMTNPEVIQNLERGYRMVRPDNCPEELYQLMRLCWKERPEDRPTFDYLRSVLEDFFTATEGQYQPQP
The note with it: ATP at Km, 30-minute pre-incubation; for inhibition at 5 µM: compound 5 μM; for pIC50: read-out: kinase inhibition in terms of IC50, LCK. As for the experimental part:
as §1, §2

The target of test [15] is T15, LYNa (Homo sapiens, UniProt P07948).
T15 construct: purchased Nanosyn (contract screening)
T15 sequence (P07948 whole entry): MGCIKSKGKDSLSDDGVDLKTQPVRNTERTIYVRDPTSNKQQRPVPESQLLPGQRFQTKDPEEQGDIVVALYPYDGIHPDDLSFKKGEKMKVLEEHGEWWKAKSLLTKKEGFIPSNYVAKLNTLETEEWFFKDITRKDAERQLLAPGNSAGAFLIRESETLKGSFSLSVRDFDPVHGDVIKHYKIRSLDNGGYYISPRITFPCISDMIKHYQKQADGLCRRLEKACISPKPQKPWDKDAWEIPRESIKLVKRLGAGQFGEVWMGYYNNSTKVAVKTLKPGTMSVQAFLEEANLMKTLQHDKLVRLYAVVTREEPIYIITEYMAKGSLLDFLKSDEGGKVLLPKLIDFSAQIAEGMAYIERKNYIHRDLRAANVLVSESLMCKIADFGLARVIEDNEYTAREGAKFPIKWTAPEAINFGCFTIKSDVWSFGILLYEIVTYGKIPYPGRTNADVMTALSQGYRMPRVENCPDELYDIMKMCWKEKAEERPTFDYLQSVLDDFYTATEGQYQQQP
The note with it: compound 5 μM; ATP at Km; 30-minute pre-incubation. Here is the method:
as §1, §2

The target of test [16] is T16, PKCb1 (Homo sapiens, UniProt P05771).
T16 construct: Nanosyn (contract laboratory that ran the panel)
The note with it: compound 5 μM; ATP at Km; 30-minute pre-incubation. As for the experimental part: as §1, §2

Test [17] addresses T17, RET (Homo sapiens, UniProt P07949).
T17 construct: Nanosyn (contract laboratory that ran the panel)
The note with it: compound 5 μM; ATP at Km; 30-minute pre-incubation. As for the experimental part:
as §1, §2

In test [18] the target is T18, SGK2 (Homo sapiens, UniProt Q9HBY8).
T18 construct: Nanosyn (contract laboratory that ran the panel)
T18 sequence (Q9HBY8 1-367): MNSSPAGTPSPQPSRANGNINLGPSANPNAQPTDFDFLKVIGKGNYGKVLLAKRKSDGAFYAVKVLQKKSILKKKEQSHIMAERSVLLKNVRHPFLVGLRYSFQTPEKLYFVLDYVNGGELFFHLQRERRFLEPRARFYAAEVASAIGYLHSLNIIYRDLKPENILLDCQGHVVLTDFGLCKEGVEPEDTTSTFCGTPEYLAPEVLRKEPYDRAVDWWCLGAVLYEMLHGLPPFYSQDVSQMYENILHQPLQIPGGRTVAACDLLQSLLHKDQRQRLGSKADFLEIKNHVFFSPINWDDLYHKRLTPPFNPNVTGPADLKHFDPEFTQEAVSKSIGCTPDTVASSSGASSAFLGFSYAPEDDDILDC
The note with it: compound 5 μM; ATP at Km; 30-minute pre-incubation. As for the experimental part: as §1, §2

In test [19] the target is T19, SGK3 (Homo sapiens, UniProt Q96BR1).
T19 construct: Nanosyn (contract laboratory that ran the panel)
T19 sequence (Q96BR1 1-496): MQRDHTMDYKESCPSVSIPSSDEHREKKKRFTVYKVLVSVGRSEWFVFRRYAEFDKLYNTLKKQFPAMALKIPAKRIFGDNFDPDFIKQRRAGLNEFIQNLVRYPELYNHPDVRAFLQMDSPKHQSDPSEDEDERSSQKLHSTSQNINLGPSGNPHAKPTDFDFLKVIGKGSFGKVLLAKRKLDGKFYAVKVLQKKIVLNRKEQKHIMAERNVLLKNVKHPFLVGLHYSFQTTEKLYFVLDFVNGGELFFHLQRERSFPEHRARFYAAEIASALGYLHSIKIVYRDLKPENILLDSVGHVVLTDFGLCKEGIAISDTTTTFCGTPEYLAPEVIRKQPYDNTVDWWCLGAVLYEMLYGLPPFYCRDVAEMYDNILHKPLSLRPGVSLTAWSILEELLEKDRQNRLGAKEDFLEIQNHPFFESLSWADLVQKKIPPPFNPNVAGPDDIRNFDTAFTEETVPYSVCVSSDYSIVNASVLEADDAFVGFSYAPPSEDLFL
The note with it: compound 5 μM; ATP at Km; 30-minute pre-incubation. As for the experimental part: as §1, §2

In test [20] the target is T20, SRC (Homo sapiens, UniProt P12931).
T20 construct: Nanosyn (contract laboratory that ran the panel)
The note with it: compound 5 μM; ATP at Km; 30-minute pre-incubation. As for the experimental part:
as §1, §2

Test [21] addresses T21, TNIK (Homo sapiens, UniProt Q9UKE5).
T21 construct: Nanosyn (contract laboratory that ran the panel)
The note with it: compound 5 μM; ATP at Km; 30-minute pre-incubation. Here is the method: as §1, §2

Test [22] has as its target T22, ZAK (Homo sapiens, UniProt Q9NYL2).
T22 construct: Nanosyn (contract laboratory that ran the panel)
The note with it: compound 5 μM; ATP at Km; 30-minute pre-incubation. Here is the method: as §1, §2

Test [23] concerns the target T23, p38a (Homo sapiens, UniProt Q16539).
T23 construct: Nanosyn (contract laboratory that ran the panel)
The note with it: compound 5 μM; ATP at Km; 30-minute pre-incubation. As for the experimental part:
as §1, §2

Structures are written as SMILES. pIC50: −log10 of the molar value. Some results are limits rather than exact numbers.

T5 sequence (Q13882 whole entry): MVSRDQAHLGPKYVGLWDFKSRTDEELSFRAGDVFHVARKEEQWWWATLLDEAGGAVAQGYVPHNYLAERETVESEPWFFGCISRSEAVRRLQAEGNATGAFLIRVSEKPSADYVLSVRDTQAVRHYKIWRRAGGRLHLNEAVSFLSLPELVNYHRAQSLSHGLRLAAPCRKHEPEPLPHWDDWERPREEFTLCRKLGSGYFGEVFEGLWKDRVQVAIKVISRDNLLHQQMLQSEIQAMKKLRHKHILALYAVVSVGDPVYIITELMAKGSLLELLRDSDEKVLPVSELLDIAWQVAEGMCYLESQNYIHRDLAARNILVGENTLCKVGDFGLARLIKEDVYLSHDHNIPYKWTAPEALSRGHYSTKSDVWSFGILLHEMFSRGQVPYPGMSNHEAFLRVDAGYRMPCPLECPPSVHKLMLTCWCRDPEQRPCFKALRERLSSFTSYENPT
T13 sequence (P10721 26-976): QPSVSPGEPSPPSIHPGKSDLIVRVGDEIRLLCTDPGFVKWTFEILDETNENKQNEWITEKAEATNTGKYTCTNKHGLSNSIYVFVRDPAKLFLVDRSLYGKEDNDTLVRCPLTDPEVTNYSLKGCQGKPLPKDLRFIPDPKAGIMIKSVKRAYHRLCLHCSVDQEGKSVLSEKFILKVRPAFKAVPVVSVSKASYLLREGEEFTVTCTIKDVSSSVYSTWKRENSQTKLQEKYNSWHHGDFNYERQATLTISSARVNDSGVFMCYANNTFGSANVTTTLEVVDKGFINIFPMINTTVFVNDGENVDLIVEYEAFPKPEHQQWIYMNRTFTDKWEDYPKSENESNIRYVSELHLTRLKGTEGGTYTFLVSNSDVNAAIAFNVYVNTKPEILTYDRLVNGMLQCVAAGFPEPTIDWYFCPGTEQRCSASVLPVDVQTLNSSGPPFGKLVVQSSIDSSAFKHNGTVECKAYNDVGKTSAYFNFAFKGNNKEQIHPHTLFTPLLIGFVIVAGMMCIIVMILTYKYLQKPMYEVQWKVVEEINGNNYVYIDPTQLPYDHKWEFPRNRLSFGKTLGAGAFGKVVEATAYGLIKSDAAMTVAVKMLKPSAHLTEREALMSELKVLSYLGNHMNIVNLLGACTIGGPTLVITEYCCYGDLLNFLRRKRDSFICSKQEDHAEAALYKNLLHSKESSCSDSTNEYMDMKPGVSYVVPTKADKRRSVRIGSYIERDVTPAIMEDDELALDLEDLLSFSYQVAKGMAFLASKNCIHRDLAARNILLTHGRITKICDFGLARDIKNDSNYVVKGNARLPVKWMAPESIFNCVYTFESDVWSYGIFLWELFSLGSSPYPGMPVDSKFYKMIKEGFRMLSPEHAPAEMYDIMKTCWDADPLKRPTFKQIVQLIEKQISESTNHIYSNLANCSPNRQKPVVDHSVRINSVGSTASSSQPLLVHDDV
T6 sequence (Q9HAZ1 whole entry): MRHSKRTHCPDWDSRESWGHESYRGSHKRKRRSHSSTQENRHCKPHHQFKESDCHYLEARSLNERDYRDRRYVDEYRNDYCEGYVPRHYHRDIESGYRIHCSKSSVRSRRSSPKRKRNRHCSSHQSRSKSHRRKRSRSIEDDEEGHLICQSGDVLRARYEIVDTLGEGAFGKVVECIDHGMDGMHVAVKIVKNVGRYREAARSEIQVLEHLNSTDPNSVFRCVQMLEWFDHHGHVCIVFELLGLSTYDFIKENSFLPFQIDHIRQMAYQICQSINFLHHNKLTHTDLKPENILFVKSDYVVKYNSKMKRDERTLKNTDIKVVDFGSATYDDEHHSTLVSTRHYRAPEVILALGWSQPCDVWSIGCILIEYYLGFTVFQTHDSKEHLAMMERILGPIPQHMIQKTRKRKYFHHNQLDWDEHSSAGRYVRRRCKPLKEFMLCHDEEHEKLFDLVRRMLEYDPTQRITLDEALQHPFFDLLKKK
T1 sequence (P00519 whole entry): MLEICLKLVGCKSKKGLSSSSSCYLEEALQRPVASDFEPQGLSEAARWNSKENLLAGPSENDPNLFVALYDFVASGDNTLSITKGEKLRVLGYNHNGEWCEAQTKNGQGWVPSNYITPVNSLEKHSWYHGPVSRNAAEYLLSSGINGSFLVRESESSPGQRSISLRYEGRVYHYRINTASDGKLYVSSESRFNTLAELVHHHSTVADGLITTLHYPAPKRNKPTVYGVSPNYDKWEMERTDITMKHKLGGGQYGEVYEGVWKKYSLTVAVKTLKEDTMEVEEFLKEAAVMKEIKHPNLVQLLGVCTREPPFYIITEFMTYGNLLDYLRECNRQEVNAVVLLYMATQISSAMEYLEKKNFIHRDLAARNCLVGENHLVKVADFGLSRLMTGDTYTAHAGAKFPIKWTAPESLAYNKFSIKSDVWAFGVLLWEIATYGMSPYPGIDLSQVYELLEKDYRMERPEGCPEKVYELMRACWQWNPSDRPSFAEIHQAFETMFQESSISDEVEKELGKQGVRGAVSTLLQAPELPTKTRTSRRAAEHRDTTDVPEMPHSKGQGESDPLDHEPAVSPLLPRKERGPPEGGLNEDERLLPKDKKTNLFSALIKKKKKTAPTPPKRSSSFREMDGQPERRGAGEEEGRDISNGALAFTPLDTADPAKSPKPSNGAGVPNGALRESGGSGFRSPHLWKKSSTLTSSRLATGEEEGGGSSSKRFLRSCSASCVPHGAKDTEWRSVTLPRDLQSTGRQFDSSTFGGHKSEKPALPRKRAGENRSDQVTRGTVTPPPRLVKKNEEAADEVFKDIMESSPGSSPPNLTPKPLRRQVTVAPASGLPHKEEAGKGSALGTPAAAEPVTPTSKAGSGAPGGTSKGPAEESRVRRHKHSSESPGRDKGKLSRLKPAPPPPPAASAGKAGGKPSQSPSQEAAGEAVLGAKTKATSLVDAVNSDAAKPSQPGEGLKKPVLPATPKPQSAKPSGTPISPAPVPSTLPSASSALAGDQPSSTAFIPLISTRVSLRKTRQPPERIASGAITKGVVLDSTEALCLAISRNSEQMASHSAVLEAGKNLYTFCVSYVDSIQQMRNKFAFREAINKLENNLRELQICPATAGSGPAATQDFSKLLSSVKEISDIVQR

In general, inhibition refers to the drop in the measured response relative to a control, in per cent. High values mean a response far below the control, low ones a response near the control. Consider `Cc1ccc(NC(=O)c2cc(S(C)(=O)=O)n(-c3ccc(F)cc3)n2)cc1Nc1nccc(-c2cccnc2N)n1` [Ex13, N-(3-((4-(2-aminopyridin-3-yl)pyrimidin-2-yl)amino)-4-methylphenyl)-1-(4-fluorophenyl)-5-(methylsulfonyl)-1H-pyrazole-3-carboxamide], for which the inhibition at 5 µM in test [1] was at least 95%; in [2], at least 95%; in test [3] it was below 79%; in test [4], at least 95%; in test [5], below 79%; in [6], below 79%. In addition, the inhibition at 5 µM in [7] is below 79%; in test [8], at least 95%; in [9] it was below 79%; in test [10] it was below 79%; in test [11] it was below 79%; in test [12] it was below 79%. Besides, the inhibition at 5 µM in test [13] is at least 95%; in test [14], 90 to 94%; in test [15], at least 95%; in test [16], below 79%; in test [17] it was below 79%; in [18], below 79%. The inhibition at 5 µM in [19], in test [20], in test [21], in [22] and in test [23] was below 79% throughout.
In the case of `Cc1ccc(NC(=O)c2cc(S(C)(=O)=O)n(-c3ccc(F)cc3)n2)cc1C#Cc1cnc2cccnn12` [Ex14, 1-(4-fluorophenyl)-N-(3-(imidazo[1,2-b]pyridazin-3-ylethynyl)-4-methylphenyl)-5-(methylsulfonyl)-1H-pyrazole-3-carboxamide], the inhibition at 5 µM in [1] is below 79%; in test [2], at least 95%; in [3] it was 80 to 89%; in test [4], at least 95%; in test [5], below 79%; in [6], below 79%. Also, the inhibition at 5 µM was below 79% in test [7]; 90 to 94% in [8]; 80 to 89% in test [9]; 80 to 89% in [10]; 90 to 94% in test [11]; 90 to 94% in test [12]. Further, the inhibition at 5 µM in test [13] was 90 to 94%; in test [14] it was at least 95%; in test [15], at least 95%; in test [16], below 79%; in test [17] it was 80 to 89%; in test [18] it was below 79%. For the same compound, the inhibition at 5 µM in test [19] is below 79%; in [20] it was below 79%; in [21], below 79%; in [22], 80 to 89%; in [23], below 79%.
Take `Cc1ccc(NC(=O)c2cc([S+](C)[O-])n(-c3ccc(F)cc3)n2)cc1Nc1ccc2ncn(C)c(=O)c2c1` (stereo not drawn) [Ex5, 1-(4-fluorophenyl)-N-(4-methyl-3-((3-methyl-4-oxo-3,4-dihydroquinazolin-6-yl)amino)phenyl)-5-(methylsulfinyl)-1H-pyrazole-3-carboxamide]: the inhibition at 5 µM in test [1] was below 79%; in test [2], below 79%; in test [3], below 79%; in test [4], at least 95%; in [5], below 79%; in test [6], below 79%. The inhibition at 5 µM in [7], in test [8], in test [9], in test [10], in [11] and in [12] was below 79% in each case. Also, the inhibition at 5 µM was 80 to 89% in [13]; 90 to 94% in test [14]; at least 95% in test [15]; below 79% in test [16]; below 79% in [17]; below 79% in test [18]. Further, the inhibition at 5 µM in test [19] is below 79%; in test [20], below 79%; in test [21], below 79%; in test [22] it was below 79%; in test [23], at least 95%.
As a reminder, the pIC50 is the IC50 on a negative log10 scale, so that one unit is a factor of ten. On to `COc1cc2nccc(Oc3ccc(NC(=O)c4cc(S(C)(=O)=O)n(-c5ccc(F)cc5)n4)c(F)c3)c2cc1OC` [Ex71, N-(4-((6,7-dimethoxyquinolin-4-yl)oxy)-2-fluorophenyl)-1-(4-fluorophenyl)-5-(methylsulfonyl)-1H-pyrazole-3-carboxamide], for which the negative logarithm of the IC50 (pIC50) in test [14] was above 6.30.
With `COc1cc2nccc(Oc3ccc(NC(=O)c4cc(S(C)(=O)=O)n(-c5ccc(F)cc5)n4)cc3F)c2cc1OC` [Ex73, N-(4-((6,7-dimethoxyquinolin-4-yl)oxy)-3-fluorophenyl)-1-(4-fluorophenyl)-5-(methylsulfonyl)-1H-pyrazole-3-carboxamide], the pIC50 in test [14] was 6.00 to 6.30.
Consider `COc1cc2nccc(Oc3ccc(NC(=O)c4cc(S(C)(=O)=O)n(-c5ccc(F)cc5)n4)cc3)c2cc1OC` [Ex72, N-(4-((6,7-dimethoxyquinolin-4-yl)oxy)phenyl)-1-(4-fluorophenyl)-5-(methylsulfonyl)-1H-pyrazole-3-carboxamide], for which the negative logarithm of the IC50 (pIC50) in test [14] is 6.00 to 6.30.
